The text below walks through data of patent US12410155B2, “Salt form and crystal form of tetrahydrocyclohepta indazole compound” (Zhejiang Yangli Pharmaceutical Technology Co., Ltd., priority 2021, dated 2025).

One series deals with CYP3A (Homo sapiens, UniProt P08684). As to the kind of experiment: Inhibition of cytochrome P450 isozymes in human liver microsomes, CYP3A. Format: in vitro ADME. Here is the method: (§1) (1) Study on the Inhibition of Cytochrome P450 Isozymes
(§2) The probe substrate, test compound, human liver microsomes, and cofactors were incubated together. The concentration of the metabolic product of the probe substrate was detected using LC-MS/MS to calculate the IC50 values. In the vehicle control samples, the test compound was replaced with an equal volume of vehicle, and the enzyme activity of the vehicle control samples was set as 100%. […]
(§3) Upon reaching the respective reaction times for the incubation systems of the various isoenzymes, 200 μL of termination solution containing the appropriate internal standard was added to the reaction plate to terminate the reaction. […] The metabolites of the probe substrates were then analyzed using LC-MS/MS. […]
(§4) The activity of various CYP isoenzymes was reflected by the production rate of metabolites from each probe substrate. […] The residual activity percentage of each isoenzyme was determined by comparing the metabolite production rate of the probe substrate in the presence of different concentrations of the test compound or positive inhibitor to that of the vehicle control samples, then multiplying by 100%. […]

In a further series the target is T1, CYP1A2 (Homo sapiens, UniProt P05177).
T1 sequence (P05177 1-516): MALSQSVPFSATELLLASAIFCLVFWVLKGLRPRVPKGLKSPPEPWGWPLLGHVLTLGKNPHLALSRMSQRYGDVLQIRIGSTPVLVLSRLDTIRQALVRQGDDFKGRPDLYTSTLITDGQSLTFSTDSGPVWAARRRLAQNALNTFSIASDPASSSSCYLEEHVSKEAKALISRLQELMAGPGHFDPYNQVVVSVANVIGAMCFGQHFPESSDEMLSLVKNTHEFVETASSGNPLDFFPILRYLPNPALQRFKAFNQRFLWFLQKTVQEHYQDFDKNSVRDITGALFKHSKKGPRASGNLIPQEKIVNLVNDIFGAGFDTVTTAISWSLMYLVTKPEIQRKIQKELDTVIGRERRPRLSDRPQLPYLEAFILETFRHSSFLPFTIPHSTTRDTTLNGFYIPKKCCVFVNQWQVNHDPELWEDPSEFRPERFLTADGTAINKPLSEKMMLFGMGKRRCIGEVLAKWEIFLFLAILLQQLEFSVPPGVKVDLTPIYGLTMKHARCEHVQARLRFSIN
Briefly: Inhibition of cytochrome P450 isozymes in human liver microsomes, CYP1A2. Type of series: in vitro ADME. To be noted: phenacetin substrate. The method, then: as §1, §2, §3, §4

The next series has as its system HCC1428 cells. Briefly: HCC1428 cell proliferation inhibition assay (CTG). Format: cell-based. To be noted: Homo sapiens, HCC1428, 168 h, 7 days. The method, then: (5) HCC1428 and MDA-MB-134VI Cell Proliferation Inhibition Assay
The initial concentration of the compound of formula (I) was set at 200 nM, followed by 4-fold serial dilutions to achieve ten concentration gradients.
• 1) HCC1428 cells were cultured in RPMI 1640 complete growth medium containing 10% FBS and 1% PenStrep. • 2) When the cells in a T75 culture flask reached 80-90% cell fusion, they were digested with trypsin and collected. The cell passages used were the seventh generation for the first independent experiment and the thirteenth generation for the second independent experiment. • 3) The cells were centrifuged at 1000 rpm, resuspended in complete medium, and counted. The cell densities were 1.30×10^6 cells/mL for the first experiment and 9.50×10^5 cells/mL for the second experiment, with viability both exceeding 95%. • 4) Cell suspensions were prepared in complete medium at a density of 1.25×10^4 cells/mL for both experiments. […] 100 μL of CellTiter-Glo® reagent was added to each well. The plate was incubated at room temperature in the dark for 30 minutes. • 8) Luminescence values were read using a BMG plate reader.
The IC50 (half-maximal inhibitory concentration) of the compound was obtained using the following nonlinear fitting formula: […]

CYP3A, sequence (P08684 2-503): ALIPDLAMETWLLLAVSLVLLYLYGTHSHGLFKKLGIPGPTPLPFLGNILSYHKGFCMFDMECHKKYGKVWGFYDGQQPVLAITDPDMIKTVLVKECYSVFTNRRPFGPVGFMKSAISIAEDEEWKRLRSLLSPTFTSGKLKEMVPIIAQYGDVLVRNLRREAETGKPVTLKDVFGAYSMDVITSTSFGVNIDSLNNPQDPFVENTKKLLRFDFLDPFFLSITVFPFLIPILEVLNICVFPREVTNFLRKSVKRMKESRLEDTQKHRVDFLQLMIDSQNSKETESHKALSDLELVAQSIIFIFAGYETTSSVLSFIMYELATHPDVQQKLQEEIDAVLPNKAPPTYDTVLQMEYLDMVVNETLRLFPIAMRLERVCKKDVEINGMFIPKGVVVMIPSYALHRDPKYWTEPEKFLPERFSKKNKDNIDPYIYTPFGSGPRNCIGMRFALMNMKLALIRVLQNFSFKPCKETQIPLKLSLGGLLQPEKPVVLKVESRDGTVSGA

In general, IC50 refers to the point on the concentration scale where inhibition reaches its midpoint. The low end stands for greater potency, the high end for weaker potency. For `FCCCN1CC[C@H](Nc2cnc(C3=C(CC(F)(F)F)CCCc4c3ccc3[nH]nc(F)c43)cn2)C1` [Compound of formula (I)], the IC50 at 3 min against CYP3A (probe midazolam, midazolam as the substrate) is 8.38 µM. The same molecule gave an IC50 at 10 min at CYP3A (probe testosterone, testosterone as the substrate) of 10.9 µM. Further, the IC50 against CYP1A2 stood at 97.2 µM; with HCC1428 cells (First experiment), 0.49 nM; in the series on HCC1428 cells (Mean ± SD), 1.55 ± 0.99 nM; with HCC1428 cells (Second experiment), 1.34 nM.
